According to patent US20110217265A1, “Screening for Inhibitors of HCV Amphipathic Helix (AH) Function” (priority 2008, published 2011):

Legend:
genotype 1b 4BAH2 = genotype 1b 4BAH2 (Hepatitis C virus genotype 1b, UniProt Q9WMX2); test: DLS assay of 4BAH2-induced POPC lipid vesicle aggregation, genotype 1b peptide; type: biochemical; set-up: purchased Anaspec Corporation (San Jose, Calif., USA); host or cells: chemical synthesis; conditions: POPC vesicles
Procedure: Dynamic light scattering. Dynamic light scattering was performed by a 90Plus particle size analyzer, and the results were analyzed by digital autocorrelator software (Brookhaven Instruments Corporation, New York). All measurements were taken at a scattering angle of 90°, where the reflection effect is minimized. Dynamic light scattering (DLS) is a well established technique for measuring particle size over the size range from a few nanometers to a few microns. The concept uses the idea that small particles in a suspension move in a random pattern, i.e., Brownian motion. When a coherent source of light (such as a laser) having a known frequency is directed at the moving particles, the light is scattered at a different frequency. The shift in light frequency is related to the size of the particles causing the shift. Due to their higher average velocity, smaller particles cause a greater shift in the light frequency than larger particles. […]
Dynamic Light Scattering. Dynamic light scattering (DLS) was performed using a doubled, Nd:YAG laser (model 532 DPSS, Coherent Laser Group, Santa Clara, Calif.) with a wavelength, λ, of […] and a Brookhaven digital autocorrelator, and analyzed by digital autocorrelator software (Brookhaven Instruments Corporation, New York, USA). […] DLS results were analyzed to give an intensity-weighted size distribution using a discrete Laplace inversion routine. […]

2a HCV RNA replicon = 2a HCV RNA replicon assay (FL-J6/JFH-5'C19Rluc2AUbi, luciferase); type: cell-based, Hepatitis C Virus genotype 2a; conditions: full-length J6/JFH Luc, luciferase at 72 hr of treatment
Procedure, shortened: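 Huh7.5 cells electroporated with in vitro-transcribed FL-J6/JFH-5′C19Rluc2AUbi RNA (full-length genotype 2a, Renilla luciferase) and treated from 24 h, with compound refreshed daily for 72 h. Replication measured as Renilla luminescence, normalized to untreated or matched-DMSO samples. Alamar Blue fluorescence on the same wells assessed cytotoxicity.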

genotype 1b 4BAH2, sequence (Q9WMX2 1754-1776): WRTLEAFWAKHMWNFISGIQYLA

CC(C)CN(C)c1nc(N)c(C(=O)NC(=N)N)nc1Cl [C4, 3-amino-N-carbamimidoyl-6-chloro-5-(isobutyl(methyl)amino)pyrazine-2-carboxamide]
Inhibition of genotype 1b 4BAH2-mediated vesicle aggregation (DLS) (genotype 1b 4BAH2): inhibited genotype 1b 4BAH2-mediated vesicle aggregation | Inhibition of HCV genotype 2a viral genome replication (2a HCV RNA replicon): exhibited inhibition
